In the first experiment the target is T1, FL-SMARCA2 (full-length human SMARCA2 isoform 1) (Homo sapiens, UniProt P51531).
T1 construct: FLAG tag (YKDDDDK) (C); made in house; host or cells: Sf21 insect cells (baculovirus, pFastBacI)
T1 sequence (P51531 with tags, fused parts or gaps): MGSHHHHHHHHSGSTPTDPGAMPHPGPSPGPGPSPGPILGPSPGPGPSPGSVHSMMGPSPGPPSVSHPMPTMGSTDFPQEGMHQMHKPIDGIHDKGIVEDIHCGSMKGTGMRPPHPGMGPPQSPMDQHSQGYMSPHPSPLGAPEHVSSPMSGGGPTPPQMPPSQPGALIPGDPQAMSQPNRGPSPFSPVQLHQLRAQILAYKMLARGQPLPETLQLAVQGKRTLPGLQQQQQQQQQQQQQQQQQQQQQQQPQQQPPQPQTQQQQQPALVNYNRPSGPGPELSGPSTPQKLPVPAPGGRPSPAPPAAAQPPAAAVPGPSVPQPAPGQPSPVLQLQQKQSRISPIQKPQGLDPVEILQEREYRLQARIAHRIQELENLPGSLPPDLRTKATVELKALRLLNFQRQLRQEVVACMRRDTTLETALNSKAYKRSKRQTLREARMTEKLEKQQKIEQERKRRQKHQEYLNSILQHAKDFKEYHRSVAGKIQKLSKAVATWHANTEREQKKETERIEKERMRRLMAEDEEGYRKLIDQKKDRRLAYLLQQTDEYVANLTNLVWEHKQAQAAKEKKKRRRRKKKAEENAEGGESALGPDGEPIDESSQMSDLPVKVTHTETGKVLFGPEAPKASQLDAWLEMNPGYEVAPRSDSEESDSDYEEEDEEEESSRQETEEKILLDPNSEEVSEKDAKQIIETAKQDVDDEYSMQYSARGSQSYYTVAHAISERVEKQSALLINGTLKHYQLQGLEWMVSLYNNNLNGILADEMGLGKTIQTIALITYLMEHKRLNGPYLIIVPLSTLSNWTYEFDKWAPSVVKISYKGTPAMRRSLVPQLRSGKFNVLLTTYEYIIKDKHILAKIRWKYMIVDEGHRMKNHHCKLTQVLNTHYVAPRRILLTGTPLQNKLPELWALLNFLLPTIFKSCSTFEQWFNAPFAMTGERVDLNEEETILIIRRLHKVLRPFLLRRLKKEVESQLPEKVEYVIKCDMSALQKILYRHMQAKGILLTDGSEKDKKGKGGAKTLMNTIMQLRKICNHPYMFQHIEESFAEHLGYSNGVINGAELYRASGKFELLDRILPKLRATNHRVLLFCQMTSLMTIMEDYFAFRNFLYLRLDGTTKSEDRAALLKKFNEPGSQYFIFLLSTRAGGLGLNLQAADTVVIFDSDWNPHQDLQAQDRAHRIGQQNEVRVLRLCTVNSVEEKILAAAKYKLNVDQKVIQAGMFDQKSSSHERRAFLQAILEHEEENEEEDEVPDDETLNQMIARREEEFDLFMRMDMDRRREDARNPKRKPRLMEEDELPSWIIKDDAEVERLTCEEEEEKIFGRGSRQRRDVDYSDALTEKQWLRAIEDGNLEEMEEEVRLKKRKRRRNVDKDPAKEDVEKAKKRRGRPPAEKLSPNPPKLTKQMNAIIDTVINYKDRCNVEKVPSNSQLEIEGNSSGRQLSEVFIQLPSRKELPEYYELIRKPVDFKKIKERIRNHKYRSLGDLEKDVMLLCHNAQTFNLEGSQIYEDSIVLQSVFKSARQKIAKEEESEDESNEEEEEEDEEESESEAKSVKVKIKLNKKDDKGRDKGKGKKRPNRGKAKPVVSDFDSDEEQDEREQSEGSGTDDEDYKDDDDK
The experiment can be described thus: SMARCA2 ATPase activity assay (ADP-Glo, chicken mononucleosome substrate). Type of experiment: biochemical. The note with it: Table 3a.1; SMARCA2 5 nM, ATP 250 uM, mononucleosome 10 nM. An excerpt:
Molecular Biology: Full-length human SMARCA2 isoform 1 (P51531) transcript clone was amplified from a cDNA library incorporating an N-terminal HIS tag ([…]) fused directly to Ser2 of SMARCA2 and a C-FLAG tag (YKDDDDK) fused directly to Glu1590 of SMARCA2. The amplified gene was subcloned into pFastBacI (Life Technologies).
Protein Expression: Recombinant baculovirus were generated and protein over-expression was accomplished by infecting exponentially growing Sf21 insect cell culture at 1.24×10^6 cell/ml with an MOI of 0.1. Infections were carried out for 76 hours, harvested by centrifugation, and stored at −80° C. for purification.
Expressed full-length SMARCA2 was purified from cell paste by FLAG affinity chromatography followed by anion exchange chromatography. The protein was dialyzed into a storage buffer containing 25 mM HEPES, 300 mM KCl, 10% Glycerol, pH 7.9, 1 mM TCEP and 0.01% Tween-20. The purity of the protein was measured as 74% using micro-capillary based gel electrophoresis.
(ADP-Glo turns the ADP formed in a reaction into a luminescent signal.)
Broadly, the IC50 is the concentration needed to halve the response being measured. Read a high IC50 as lower potency. `O=C(Nc1cc(F)c(=O)n(CCF)c1)c1ccc2c(c1)CNC2=O` [Compound 68a] yielded an IC50 of over 50 µM.

`CCn1cc(NC(=O)c2c[nH]c3c(Cl)cccc23)ccc1=O` [Compound 24a]: the IC50 is over 50 µM.

`CN1CCC(C(=O)Nc2cc(F)c(=O)n(CCF)c2)CC1=O` (stereo not shown) [Compound 47a] had an IC50 of over 50 µM.

`CCn1cc(NC(=O)c2sc3ccccc3c2C)ccc1=O` [Compound 40a] came in with an IC50 of over 50 µM.

Consider `CCn1cc(NC(=O)c2ccccn2)ccc1=O` [Compound 30a], for which the IC50 is over 50 µM.

`CCn1cc(NC(=O)c2cccnc2)ccc1=O` [Compound 14a] came in with an IC50 of over 50 µM.

In turn, `CCn1cc(NC(=O)c2cn3cccnc3n2)ccc1=O` [Compound 21a] registered an IC50 of over 50 µM.

The experiment is the same for the next values; noted with them: Table 3b.1; SMARCA2 5 nM, ATP 250 uM, mononucleosome 10 nM.
The compound `NS(=O)(=O)c1ccc(C(=O)Nc2cc(F)c(=O)n(CCF)c2)cc1Cl` [Compound 23b] displayed a half-inhibitory concentration (IC50) of over 50 µM.

`CCn1cc(NC(=O)C2C(C)(C)C2(C)C)ccc1=O` [Compound 3b] yielded a half-maximal inhibitory concentration (IC50) of over 50 µM.

As to `CCn1cc(NC(=O)c2cccc(Cl)c2F)ccc1=O` [Compound 10b], the IC50 is over 50 µM.

`CC(=O)Nc1ccc(C(=O)Nc2cc(F)c(=O)n(CCF)c2)cc1Cl` [Compound 22b] showed an IC50 of over 50 µM.

Staying with this experiment, now noted: Table 3c.1; ATPase assay, enzyme 5 nM, ATP 250 uM, chicken mononucleosome 10 nM, 30 min preincubation.
Take `NCCCn1cc(NC(=O)c2cc(F)c(Cl)s2)cc(F)c1=O` [Compound 28c]: the IC50 is over 50 µM.

Compound `Cn1ccnc1-c1cc(NC(=O)c2cc(Cl)c(C(F)(F)F)s2)cn(CC(F)F)c1=O` [Compound 88c] showed an IC50 of over 50 µM.

Take `O=C(Nc1cc(F)c(=O)n(CC(F)F)c1)c1cc(C#Cc2cccc3c2CNC3=O)c(Cl)s1` [Compound 137c]: half-maximal inhibition (IC50) was put at 0.3 µM.

`O=C(Nc1cc(F)c(=O)n(CC(F)F)c1)c1cc(CC(F)(F)F)c(Cl)s1` [Compound 24c] came in with an IC50 of 11.3 µM. This IC50 lies about 38-fold higher than the previous one.

For the compound `CS(=O)(=O)c1cc(NC(=O)c2cc(F)c(Cl)s2)cn(CC(F)F)c1=O` [Compound 11c], the 50% inhibitory concentration (IC50) was over 50 µM.

Consider `Cn1cncc1-c1cc(NC(=O)c2sc(C(F)(F)F)cc2Cl)cn(CC(F)F)c1=O` [Compound 38c], for which the IC50 was over 50 µM.

Regarding `N#Cc1sc(C(=O)Nc2cc(F)c(=O)n(CC(F)F)c2)cc1C#CC1COC1` [Compound 93c], the IC50 is over 50 µM.

Staying with this experiment, now noted: Table 3.1; ATPase assay, enzyme 5 nM, ATP 250 uM, chicken mononucleosome 10 nM, 30 min preincubation.
The compound `N#Cc1cc(C(=O)Nc2ccc(=O)n(CCF)c2)sc1Cl` [Compound 187] came in with a half-maximal inhibitory concentration (IC50) of 0.158 µM. That is a sub-micromolar value.

On to `CCn1cc(NC(=O)c2cc(Cl)c(Cl)s2)cc(F)c1=O` [Compound 109], for which the IC50 was 0.173 µM.

Take `CCn1cc(NC(=O)c2cc(Cl)c(Cl)n2C)cc(F)c1=O` [Compound 164]: the IC50 worked out at 0.311 µM. This IC50 lies about 1.8-fold higher than the previous one.

In turn, `CCn1cc(NC(=O)c2ccc(Cl)s2)ccc1=O` [Compound 40] registered a half-inhibitory concentration (IC50) of 2.63 µM.

Turning to `CCn1cc(NC(=O)c2cc(C#N)c(Cl)s2)ccc1=O` [Compound 106], the IC50 came out at 0.417 µM.

Another experiment deals with FL-SMARCA4 (Homo sapiens, UniProt P51532). As to the kind of experiment: SMARCA4 ATPase activity assay (ADP-Glo, chicken mononucleosome substrate). To be noted: FL-SMARCA4 IC50, Table 3a.2; SMARCA4 5 nM, ATP 250 uM, mononucleosome 10 nM.
FL-SMARCA4, sequence (P51532 whole entry): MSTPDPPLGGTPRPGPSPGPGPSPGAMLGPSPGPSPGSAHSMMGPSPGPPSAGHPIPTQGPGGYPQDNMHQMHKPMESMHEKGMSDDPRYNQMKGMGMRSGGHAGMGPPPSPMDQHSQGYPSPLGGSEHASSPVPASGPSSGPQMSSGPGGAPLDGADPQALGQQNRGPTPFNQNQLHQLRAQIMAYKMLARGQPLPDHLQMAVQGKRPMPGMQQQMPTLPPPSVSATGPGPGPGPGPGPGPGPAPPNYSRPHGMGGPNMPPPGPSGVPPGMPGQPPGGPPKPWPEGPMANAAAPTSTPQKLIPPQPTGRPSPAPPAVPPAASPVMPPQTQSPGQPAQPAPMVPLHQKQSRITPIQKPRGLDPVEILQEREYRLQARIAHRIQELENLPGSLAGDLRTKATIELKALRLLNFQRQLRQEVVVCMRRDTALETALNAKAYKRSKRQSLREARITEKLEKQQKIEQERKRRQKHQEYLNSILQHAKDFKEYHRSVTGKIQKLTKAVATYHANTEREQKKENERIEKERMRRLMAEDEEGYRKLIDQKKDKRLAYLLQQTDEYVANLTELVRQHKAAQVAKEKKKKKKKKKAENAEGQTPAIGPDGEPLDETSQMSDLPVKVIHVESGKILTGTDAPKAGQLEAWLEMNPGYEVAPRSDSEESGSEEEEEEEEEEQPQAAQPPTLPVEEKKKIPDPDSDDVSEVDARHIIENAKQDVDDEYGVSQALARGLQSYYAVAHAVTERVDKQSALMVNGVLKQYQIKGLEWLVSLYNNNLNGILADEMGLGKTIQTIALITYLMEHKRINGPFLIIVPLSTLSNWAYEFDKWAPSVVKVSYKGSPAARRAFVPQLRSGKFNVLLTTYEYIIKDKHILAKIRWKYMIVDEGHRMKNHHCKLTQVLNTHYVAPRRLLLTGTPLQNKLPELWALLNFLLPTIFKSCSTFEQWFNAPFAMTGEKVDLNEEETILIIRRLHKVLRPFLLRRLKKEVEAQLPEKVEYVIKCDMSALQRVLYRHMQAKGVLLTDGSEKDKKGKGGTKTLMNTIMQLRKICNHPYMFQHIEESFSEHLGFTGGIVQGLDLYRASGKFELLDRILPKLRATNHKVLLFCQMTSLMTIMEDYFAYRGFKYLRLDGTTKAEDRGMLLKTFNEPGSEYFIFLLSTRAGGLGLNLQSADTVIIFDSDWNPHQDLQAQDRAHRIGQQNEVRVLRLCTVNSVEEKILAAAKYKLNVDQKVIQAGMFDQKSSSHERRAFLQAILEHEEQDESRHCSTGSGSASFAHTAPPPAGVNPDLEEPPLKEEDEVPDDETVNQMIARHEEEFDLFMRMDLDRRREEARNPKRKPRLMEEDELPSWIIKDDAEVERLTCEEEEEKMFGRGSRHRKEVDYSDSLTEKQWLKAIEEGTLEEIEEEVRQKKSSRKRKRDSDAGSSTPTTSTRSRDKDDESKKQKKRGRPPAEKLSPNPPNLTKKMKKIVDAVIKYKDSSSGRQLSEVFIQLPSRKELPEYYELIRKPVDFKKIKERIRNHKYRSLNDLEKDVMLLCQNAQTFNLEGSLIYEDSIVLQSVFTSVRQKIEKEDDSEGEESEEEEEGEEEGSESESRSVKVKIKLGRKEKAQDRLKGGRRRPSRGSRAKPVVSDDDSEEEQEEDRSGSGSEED
`O=C(Nc1cc(F)c(=O)n(CCF)c1)c1ccc2c(c1)CNC2=O` [Compound 68a] gave an IC50 of over 50 µM.

For the compound `CCn1cc(NC(=O)c2c[nH]c3c(Cl)cccc23)ccc1=O` [Compound 24a], the IC50 is over 50 µM.

The compound `CN1CCC(C(=O)Nc2cc(F)c(=O)n(CCF)c2)CC1=O` (stereo not shown) [Compound 47a] had an IC50 of over 50 µM.

With `CCn1cc(NC(=O)c2sc3ccccc3c2C)ccc1=O` [Compound 40a], the IC50 was over 50 µM.

`CCn1cc(NC(=O)c2ccccn2)ccc1=O` [Compound 30a] showed an IC50 of over 50 µM.

Turning to `CCn1cc(NC(=O)c2cccnc2)ccc1=O` [Compound 14a], the IC50 was over 50 µM.

`CCn1cc(NC(=O)c2cn3cccnc3n2)ccc1=O` [Compound 21a] yielded a 50% inhibitory concentration (IC50) of over 50 µM.

The same experiment, now with this note: FL-SMARCA4 IC50, Table 3b.2; SMARCA4 5 nM, ATP 250 uM, mononucleosome 10 nM.
Regarding `NS(=O)(=O)c1ccc(C(=O)Nc2cc(F)c(=O)n(CCF)c2)cc1Cl` [Compound 23b], the IC50 was over 50 µM.

`CCn1cc(NC(=O)C2C(C)(C)C2(C)C)ccc1=O` [Compound 3b] returned an IC50 of over 50 µM.

`CCn1cc(NC(=O)c2cccc(Cl)c2F)ccc1=O` [Compound 10b] yielded an IC50 of over 50 µM.

As for `CC(=O)Nc1ccc(C(=O)Nc2cc(F)c(=O)n(CCF)c2)cc1Cl` [Compound 22b], the IC50 is over 50 µM.

The experiment is the same for the next values; noted with them: FL-SMARCA4 IC50, Table 3.2; ATPase assay, enzyme 5 nM, ATP 250 uM, chicken mononucleosome 10 nM, 30 min preincubation.
Turning to `N#Cc1cc(C(=O)Nc2ccc(=O)n(CCF)c2)sc1Cl` [Compound 187], the midpoint of inhibition, the IC50, lay at 0.616 µM.

In the case of `CCn1cc(NC(=O)c2cc(Cl)c(Cl)s2)cc(F)c1=O` [Compound 109], half-maximal inhibition (IC50) was put at 0.559 µM. The IC50 values of the last two compounds are within 1.5-fold of each other.

Consider `CCn1cc(NC(=O)c2cc(Cl)c(Cl)n2C)cc(F)c1=O` [Compound 164], for which the IC50 came to 1.34 µM. This IC50 lies about 2.4-fold higher than the previous one.

`CCn1cc(NC(=O)c2ccc(Cl)s2)ccc1=O` [Compound 40] gave a concentration for half-maximal inhibition (IC50) of 11.6 µM. Compared with the last compound, the IC50 is about 8.7-fold higher.

As to `CCn1cc(NC(=O)c2cc(C#N)c(Cl)s2)ccc1=O` [Compound 106], 0.838 µM corresponded to half-maximal inhibition (IC50).

Still in this experiment, the particulars now being: FL-SMARCA4 IC>50, Table 3c.2; ATPase assay, enzyme 5 nM, ATP 250 uM, chicken mononucleosome 10 nM, 30 min preincubation.
In turn, `NCCCn1cc(NC(=O)c2cc(F)c(Cl)s2)cc(F)c1=O` [Compound 28c] yielded an IC50 of over 50 µM.

For `Cn1ccnc1-c1cc(NC(=O)c2cc(Cl)c(C(F)(F)F)s2)cn(CC(F)F)c1=O` [Compound 88c], the IC50 is over 50 µM.

Compound `O=C(Nc1cc(F)c(=O)n(CC(F)F)c1)c1cc(C#Cc2cccc3c2CNC3=O)c(Cl)s1` [Compound 137c] showed an IC50 of 0.558 µM. That is a sub-micromolar value.

`O=C(Nc1cc(F)c(=O)n(CC(F)F)c1)c1cc(CC(F)(F)F)c(Cl)s1` [Compound 24c] had an IC50 of 38.7 µM. This IC50 is about 69-fold higher than that of the compound before.

`CS(=O)(=O)c1cc(NC(=O)c2cc(F)c(Cl)s2)cn(CC(F)F)c1=O` [Compound 11c] displayed an IC50 of over 50 µM.

In turn, `Cn1cncc1-c1cc(NC(=O)c2sc(C(F)(F)F)cc2Cl)cn(CC(F)F)c1=O` [Compound 38c] returned an IC50 of over 50 µM.

For the compound `N#Cc1sc(C(=O)Nc2cc(F)c(=O)n(CC(F)F)c2)cc1C#CC1COC1` [Compound 93c], the IC50 is over 50 µM.

The values are drawn from patent US20220356174A1, “PYRIDIN-2-ONE COMPOUNDS USEFUL AS SMARCA2 ANTAGONISTS” (Epizyme, Inc., priority 2018, published 2022).
